In general, IC50 refers to the concentration at which inhibition is half-maximal. A high value points to weaker potency in that assay.

These results are taken from patent publication US8703961B2, “Thiazole derivatives for the treatment of diseases such as cancer” (Merck Patent GmbH, priority 2009, dated 2014).

What all share (test): filter binding kinase assay
What all share (type): biochemical

The target in one experiment is T1, DYRK1A (Homo sapiens, UniProt Q13627).
T1 construct: purchased
The following applies: derived from % inhibition at 1 μM. The method, boiled down:
(§1)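 Compound was pre-incubated with enzyme and substrate for 5 minutes at room temperature, then the reaction was started with ATP (added solution at 5, 20 or 50 […] depending on kinase). Orthophosphoric acid stopped it, and phosphorylated substrate captured on P81 filters was quantified by scintillation counting.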

In the next experiment the target is T2, PAK4 (PAK-4) (Homo sapiens, UniProt O96013).
T2 construct: purchased
To be noted: for IC50: derived from % inhibition at 1 μM. The procedure, abridged:
as §1

The next experiment addresses T3, IKBKB (Homo sapiens, UniProt O14920).
T3 construct: purchased
T3 sequence (O14920 1-756): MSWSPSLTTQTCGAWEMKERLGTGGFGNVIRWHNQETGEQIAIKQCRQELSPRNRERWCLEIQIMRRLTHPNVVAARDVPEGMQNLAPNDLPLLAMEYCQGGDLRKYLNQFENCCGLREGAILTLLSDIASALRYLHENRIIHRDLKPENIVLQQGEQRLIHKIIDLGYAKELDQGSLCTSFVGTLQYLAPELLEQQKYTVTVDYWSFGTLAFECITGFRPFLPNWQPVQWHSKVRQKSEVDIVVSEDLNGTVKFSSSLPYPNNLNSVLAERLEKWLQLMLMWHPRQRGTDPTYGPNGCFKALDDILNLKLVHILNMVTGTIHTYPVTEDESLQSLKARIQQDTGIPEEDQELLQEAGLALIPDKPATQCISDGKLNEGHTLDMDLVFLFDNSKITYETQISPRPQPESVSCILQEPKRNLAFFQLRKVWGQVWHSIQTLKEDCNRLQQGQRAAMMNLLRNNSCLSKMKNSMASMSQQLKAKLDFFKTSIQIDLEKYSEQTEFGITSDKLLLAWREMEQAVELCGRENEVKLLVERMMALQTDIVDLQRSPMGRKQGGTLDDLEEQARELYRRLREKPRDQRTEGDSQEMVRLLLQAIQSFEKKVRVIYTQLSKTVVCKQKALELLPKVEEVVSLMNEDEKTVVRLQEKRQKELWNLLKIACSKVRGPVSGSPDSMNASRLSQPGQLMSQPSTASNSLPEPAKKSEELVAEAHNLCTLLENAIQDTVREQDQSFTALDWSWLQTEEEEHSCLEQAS
To be noted: derived from % inhibition at 1 μM. The method, boiled down:
as §1

The target of the next experiment is T4, MAPKAPK3 (Homo sapiens, UniProt Q16644).
T4 construct: purchased
The following applies: derived from % inhibition at 1 μM. The procedure, abridged:
as §1

The target of the next experiment is T5, SYK (Homo sapiens, UniProt P43405).
T5 construct: purchased
The following applies: derived from % inhibition at 1 μM. The procedure, abridged: as §1

The next experiment addresses T6, MKNK2 (Homo sapiens, UniProt Q9HBH9).
T6 construct: purchased
To be noted: derived from % inhibition at 1 μM. The method, boiled down: as §1

A further experiment has as its target T7, AURKA (Aurora A) (Homo sapiens, UniProt O14965).
T7 construct: purchased
T7 sequence (O14965 1-403): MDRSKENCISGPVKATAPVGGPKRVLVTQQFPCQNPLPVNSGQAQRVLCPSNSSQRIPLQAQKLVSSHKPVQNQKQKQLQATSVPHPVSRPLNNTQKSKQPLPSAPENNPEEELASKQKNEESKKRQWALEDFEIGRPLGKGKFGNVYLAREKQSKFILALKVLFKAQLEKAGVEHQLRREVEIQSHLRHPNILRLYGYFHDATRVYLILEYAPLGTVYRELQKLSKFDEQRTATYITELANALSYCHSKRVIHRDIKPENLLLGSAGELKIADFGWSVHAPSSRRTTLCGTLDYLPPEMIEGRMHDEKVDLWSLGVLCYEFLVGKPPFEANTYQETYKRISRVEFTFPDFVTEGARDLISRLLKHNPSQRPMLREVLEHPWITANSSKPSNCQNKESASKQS
The following applies: for IC50: derived from % inhibition at 1 μM; for remaining activity at 1 µM: read-out: residual kinase activity Aurora A. The procedure, abridged:
as §1

The next experiment deals with T8, MKNK1 (Homo sapiens, UniProt Q9BUB5).
T8 construct: purchased
To be noted: derived from % inhibition at 1 μM. The method, boiled down:
as §1

A further experiment has as its target T9, TTK (Homo sapiens, UniProt P33981).
T9 construct: purchased
T9 sequence (P33981 1-857): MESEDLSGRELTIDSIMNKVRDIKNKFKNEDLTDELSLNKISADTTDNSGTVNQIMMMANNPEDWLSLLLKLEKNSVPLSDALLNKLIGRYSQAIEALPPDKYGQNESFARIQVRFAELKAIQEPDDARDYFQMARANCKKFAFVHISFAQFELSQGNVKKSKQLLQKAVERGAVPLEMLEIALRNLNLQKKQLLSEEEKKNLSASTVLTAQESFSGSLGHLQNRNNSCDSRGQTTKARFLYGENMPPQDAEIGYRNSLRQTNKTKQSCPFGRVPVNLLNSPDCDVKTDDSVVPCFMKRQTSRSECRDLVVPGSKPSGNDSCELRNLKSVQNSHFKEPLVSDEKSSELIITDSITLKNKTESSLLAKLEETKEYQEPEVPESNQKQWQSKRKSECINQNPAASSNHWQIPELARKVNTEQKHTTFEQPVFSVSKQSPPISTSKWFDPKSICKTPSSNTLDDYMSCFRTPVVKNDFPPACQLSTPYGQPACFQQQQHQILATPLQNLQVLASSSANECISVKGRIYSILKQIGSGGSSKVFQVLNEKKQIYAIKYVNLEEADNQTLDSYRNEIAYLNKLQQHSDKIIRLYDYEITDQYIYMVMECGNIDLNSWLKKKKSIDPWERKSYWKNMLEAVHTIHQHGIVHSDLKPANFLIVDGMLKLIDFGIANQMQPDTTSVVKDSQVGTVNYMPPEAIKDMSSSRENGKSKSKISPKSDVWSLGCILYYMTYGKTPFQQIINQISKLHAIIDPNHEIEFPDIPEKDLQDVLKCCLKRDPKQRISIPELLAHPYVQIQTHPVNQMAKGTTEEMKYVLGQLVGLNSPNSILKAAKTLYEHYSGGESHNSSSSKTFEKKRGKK
The following applies: derived from % inhibition at 1 μM. The method, boiled down: as §1

T2 sequence (O96013 whole entry, species assumed): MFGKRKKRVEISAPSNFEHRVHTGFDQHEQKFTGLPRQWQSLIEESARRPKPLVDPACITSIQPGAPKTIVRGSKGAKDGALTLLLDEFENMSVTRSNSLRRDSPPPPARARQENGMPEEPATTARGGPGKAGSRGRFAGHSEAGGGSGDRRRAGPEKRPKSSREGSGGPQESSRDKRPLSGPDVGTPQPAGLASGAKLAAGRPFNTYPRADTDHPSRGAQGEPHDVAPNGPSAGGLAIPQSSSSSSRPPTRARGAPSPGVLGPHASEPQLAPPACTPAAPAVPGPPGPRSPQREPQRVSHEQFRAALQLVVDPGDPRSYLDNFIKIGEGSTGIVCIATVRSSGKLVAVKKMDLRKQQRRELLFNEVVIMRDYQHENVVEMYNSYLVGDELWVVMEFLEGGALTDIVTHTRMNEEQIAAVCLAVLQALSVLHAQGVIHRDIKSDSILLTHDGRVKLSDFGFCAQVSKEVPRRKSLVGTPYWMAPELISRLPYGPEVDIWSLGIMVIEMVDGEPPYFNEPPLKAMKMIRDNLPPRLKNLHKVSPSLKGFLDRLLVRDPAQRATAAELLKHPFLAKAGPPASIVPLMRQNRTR
T6 sequence (Q9HBH9 whole entry, species assumed): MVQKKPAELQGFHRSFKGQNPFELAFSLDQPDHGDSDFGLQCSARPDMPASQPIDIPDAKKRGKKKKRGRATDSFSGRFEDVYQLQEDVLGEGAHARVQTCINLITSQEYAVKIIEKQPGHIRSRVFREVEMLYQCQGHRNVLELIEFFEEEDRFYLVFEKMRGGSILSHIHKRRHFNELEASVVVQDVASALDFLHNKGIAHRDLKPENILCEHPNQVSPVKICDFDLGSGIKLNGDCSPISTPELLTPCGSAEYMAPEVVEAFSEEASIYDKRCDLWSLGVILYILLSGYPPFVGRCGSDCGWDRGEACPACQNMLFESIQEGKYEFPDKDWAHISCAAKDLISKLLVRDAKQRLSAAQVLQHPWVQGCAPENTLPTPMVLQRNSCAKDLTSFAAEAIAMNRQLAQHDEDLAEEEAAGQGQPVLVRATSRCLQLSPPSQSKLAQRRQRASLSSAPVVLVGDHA
T4 sequence (Q16644 whole entry, species assumed): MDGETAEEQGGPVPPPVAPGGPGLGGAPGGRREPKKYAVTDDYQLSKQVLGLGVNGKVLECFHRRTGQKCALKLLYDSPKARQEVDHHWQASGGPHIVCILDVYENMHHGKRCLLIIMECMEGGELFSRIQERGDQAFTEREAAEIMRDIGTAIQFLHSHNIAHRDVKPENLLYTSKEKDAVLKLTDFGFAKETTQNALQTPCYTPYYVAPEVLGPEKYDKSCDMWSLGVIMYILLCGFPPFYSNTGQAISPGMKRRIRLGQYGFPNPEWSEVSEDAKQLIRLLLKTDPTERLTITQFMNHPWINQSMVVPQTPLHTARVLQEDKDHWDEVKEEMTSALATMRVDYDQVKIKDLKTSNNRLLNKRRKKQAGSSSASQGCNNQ
T8 sequence (Q9BUB5 whole entry, species assumed): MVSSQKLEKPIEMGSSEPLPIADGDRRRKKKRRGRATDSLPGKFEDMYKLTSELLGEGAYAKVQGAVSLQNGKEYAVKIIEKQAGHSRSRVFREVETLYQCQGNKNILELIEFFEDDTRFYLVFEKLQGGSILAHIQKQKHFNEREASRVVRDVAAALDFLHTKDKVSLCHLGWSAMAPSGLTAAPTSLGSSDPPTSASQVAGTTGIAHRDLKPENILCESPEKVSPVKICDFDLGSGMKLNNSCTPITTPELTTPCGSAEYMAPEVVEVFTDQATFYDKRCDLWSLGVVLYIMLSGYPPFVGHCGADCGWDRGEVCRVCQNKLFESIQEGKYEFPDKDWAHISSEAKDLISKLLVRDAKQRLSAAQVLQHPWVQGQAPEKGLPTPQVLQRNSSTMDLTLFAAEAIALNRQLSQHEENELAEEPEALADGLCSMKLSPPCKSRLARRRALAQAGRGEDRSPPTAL

With `c1ccc(Cc2c[nH]c3ncsc23)cc1` [Compound A7, 6-benzyl-4H-pyrrolo[2,3-d]thiazole], the IC50 at DYRK1A was above 1 µM; on PAK4 (PAK-4) it was above 1 µM; at IKBKB, 1 to 10 µM; on MAPKAPK3, above 1 µM; at SYK, above 1 µM; on MKNK2, above 1 µM. Moreover, the figures for the IC50 at AURKA (Aurora A), on MKNK1 and at TTK were 0.01 to 1 µM, above 1 µM and 10 to 100 µM, respectively. Also, the remaining activity at 1 µM at AURKA (Aurora A) turned out to be 33%.

For the compound `Nc1ncsc1C#Cc1cnc2[nH]ccc2c1` [Compound A22, 5-(1H-pyrrolo[2,3-b]pyridin-5-ylethynyl)thiazol-4-ylamine], the IC50 on DYRK1A was above 1 µM; at PAK4 (PAK-4), 0.01 to 1 µM; on IKBKB it was 10 to 100 µM; on MAPKAPK3, above 1 µM; at SYK it was 10 to 100 µM; on MKNK2, above 1 µM. In addition, the half-maximal inhibitory concentration (IC50) at AURKA (Aurora A) is 0.01 to 1 µM; at MKNK1, 10 to 100 µM; at TTK, 10 to 100 µM. The remaining activity at 1 µM on PAK4 (PAK-4) (read-out: residual kinase activity PAK-4) was determined as 34%; on AURKA (Aurora A) it was 39%.

As to `CC(C)(C)OC(=O)Nc1nc(-c2ccncc2)sc1C#CCN1CCOCC1` [Compound A25, tert-butyl[5-(3-morpholin-4-ylprop-1-ynyl)-2-pyridin-4-ylthiazol-4-yl]-carbamate], the IC50 at DYRK1A was above 1 µM; on PAK4 (PAK-4), above 1 µM; on IKBKB, above 1 µM; on MAPKAPK3, 10 to 100 µM; at SYK it was above 1 µM; on MKNK2, above 1 µM. For the same compound, the results for the 50% inhibitory concentration (IC50) on AURKA (Aurora A), on MKNK1 and at TTK were above 1 µM, above 1 µM and 10 to 100 µM, respectively.

In the case of `CC(C)(C)OC(=O)Nc1ncsc1C#CCN1C(=O)c2ccccc2C1=O` [Compound A26, tert-butyl{5-[3-(1,3-dioxo-1,3-dihydroisoindol-2-yl)prop-1-ynyl]-thiazol-4-yl}carbamate], the IC50 on DYRK1A is 10 to 100 µM; on PAK4 (PAK-4) it was 1 to 10 µM; on IKBKB, above 1 µM; at MAPKAPK3, above 1 µM; on SYK, above 1 µM; at MKNK2 it was 10 to 100 µM. Moreover, the IC50 is 1 to 10 µM at AURKA (Aurora A), above 1 µM on MKNK1 and 10 to 100 µM at TTK.

`Nc1ncsc1C#Cc1cccc(O)c1` [Compound A27, 3-(4-aminothiazol-5-ylethynyl)phenol]: the IC50 at DYRK1A was 10 to 100 µM; at PAK4 (PAK-4), above 1 µM; on IKBKB, 1 to 10 µM; at MAPKAPK3, 10 to 100 µM; on SYK, 10 to 100 µM; at MKNK2, above 1 µM. In addition, the IC50 lay within 1 to 10 µM on AURKA (Aurora A), 10 to 100 µM on MKNK1 and 10 to 100 µM on TTK.
